The values below come from patent publication US20180037601A1, “Nucleoside-Based Anti-Bacterial and Anti-Protozoan Drugs” (UTI Limited Partnership, priority 2015, published 2018).

Several values for one entry are separate records, joined by “and”; a condition that tells them apart may be missing. Equal values may be shown once. Read-outs that look alike come from different tables or passages of the source.

One series concerns T.b gambiense. The conditions noted are these: literature ref. 30; cited from earlier work.
Another series deals with T.b. rhodesiense. To be noted: literature ref. 30; cited from earlier work.
In another series the test system is L. donovani. The conditions noted are these: literature ref. 55; cited from earlier work.
The test system of a further series is Trypanosoma cruzi. Kind of series: In vitro activity against T. cruzi. Format: cell-based. To be noted: for IC50: Trypanosoma cruzi. The text has this:
(§1) Each of the nucleoside analogues was examined for in vitro activity against four parasites, T.b. rhodesiene, T. cruzi, L. donovoni and P. falciparum, as well as for cytotoxicity toward the L6 rat myoblast cell line.
(§2) All IC50 values are expressed as micromolar. Cytotoxicity (L6 rat myoblast cells); average of duplicate determinations. Trypanosoma brucei rhodesiense (STIB900); average of duplicate determinations. Selectivity index for T.b. rhodesiense (SIr); expressed as the ratio [IC50 (L6/IC50 (T.b. rhodesiense)]. Plasmodium falciparum ([…], resistant to chloroquine); average of duplicate determinations. Selectivity index for P. falciparum (SIp), expressed as the ratio [IC50 (L6/IC50 (P. falciparum)]. Leishmania donovani (MHOM/SD/62/IS-CL2D) axenic amastigotes; average of duplicate determinations. Selectivity index for L. donovani (SIL), expressed as the ratio [IC50 (L6/IC50 (L. donovani)]. Trypanosoma cruzi; average of duplicate determinations. Selectivity index for T. cruzi (SIC), expressed as the ratio [IC50(L6/IC50(T. cruzi)]. IA. Nucleoside analogs designed to be activated via Pathway I. IB. Nucleoside analogs designed to be activated via Pathway II. Phth=phthalimido.

Series [1] relates to Trypanosoma brucei rhodesiense (STIB900). Kind of series: In vitro growth inhibition assay of T.b. rhodesiense (STIB900), Alamar blue. Format: cell-based.
Description: as §1, §2
Preparation of compounds for assay. Compounds were dissolved in 100% dimethyl sulfoxide (DMSO) and diluted in the culture medium prior to the in vitro assay. The DMSO concentration never exceeded 1% in the in vitro Alamar Blue assays at the highest drug concentration.
In vitro growth inhibition assay of T.B. rhodesiense (STIB900). IC50 values were determined using the Alamar blue assay and were carried out twice independently and in duplicate as described.^57
A general note: The colour change of resazurin is a common sign of viable cells or microbes.

The test system of series [2] is Plasmodium falciparum (KI), erythrocytic stages. Put plainly: In vitro growth inhibition assay of P. falciparum, [3H]-hypoxanthine incorporation. Format: cell-based.
Description: as §1, §2
In vitro growth inhibition assay of P. falciparum (KI). The determination of IC50 values against erythrocytic stages of P. falciparum was carried out in duplicate using the [^3H]-hypoxanthine incorporation assay.^58,59

Series [3] concerns Leishmania donovani (MHOM/SD/62/IS-CL2D) axenic amastigotes. Kind of series: In vitro growth inhibition assay of L. donovani axenic amastigotes, CellTiter. Format: cell-based. The conditions noted are these: for IC50: Leishmania donovani, axenic amastigotes, average of duplicate determinations, read-out: IC50 against L. donovani.
Description: as §1, §2
In vitro growth inhibition assay of L. Donovani. Axenic amastigotes of L. Donovaniwere adapted from promastigotes and grown in the amastigote medium previously described.^60 The tetrazolium dye-based CellTiter reagent (Promega, Madison, Wis.) was used to assess parasite growth.^61

A short description of series [4]: In vitro cytotoxicity assay (L6 rat myoblast cells), Alamar blue. The conditions noted are these: read-out: Cytotoxicity IC50 toward L6 mammalian cell line. In kind it is cell-based.
Description: as §1, §2
In vitro cytoxicity assay (L6 Rat Myoblast cells). IC50 values were determined using the Alamar blue assay^62 and were carried out twice independently.

Series [5] has as its system Leishmania donovani. To be noted: literature ref. 29; cited from earlier work.
Series [6] has as its system Leishmania donovani. The conditions noted are these: literature ref. 29; cited from earlier work. The source holds these as a separate data set.
[7] abbreviates: average of duplicate determinations, read-out: IC50 against T. cruzi.

Molecule `CC(=O)O[C@@H]1[C@H](OC(C)=O)[C@@H](CN2C(=O)c3ccccc3C2=O)O[C@H]1n1cnc2c(N)nc(Cl)nc21` [Compound 45, 2′,3′-Di-O-acetyl-2-chloro-5′-deoxy-5′-phthalimidoadenosine] yielded a melting point of 256 °C.
Consider `O=C1N=CN=C2C([C@@H]3O[C@H](CO)[C@@H](O)[C@H]3O)=CN=C12` [9-deaza-inosine], for which the “Activity against T.b gambiense” value with T.b gambiense is “active”. Moreover, the “Activity against T.b. rhodesiense” value with T.b. rhodesiense is listed as “active”. Also, the “Activity against L. donovani in a squirrel monkey in vivo model” value in the series on L. donovani is “activity”.
With `CC(=O)O[C@@H]1[C@H](OC(C)=O)[C@@H](CN2C(=O)c3ccccc3C2=O)O[C@H]1n1cnc2c(N)nc(F)nc21` [Compound 44, 2′,3′-Di-O-acetyl-5′-deoxy-2-fluoro-5′-phthalimidoadenosine], the melting point was in the range of 237 to 239 °C.
Consider `CSC[C@H]1O[C@@H](n2cnc3c(N(C)N=O)nc(F)nc32)[C@H](O)[C@@H]1O` [ACT-88, 5′-Deoxy-2-fluoro-N^6-methyl-5′-methylthio-N^6-nitrosoadenosine], for which the “Activity against Trypanosoma cruzi (in words)” value in the series with Trypanosoma cruzi is recorded as “absence”. The “Activity against Trypanosoma brucei (in words)” value in series [1] is “absence”. Moreover, in series [2] (Plasmodium falciparum, read-out: IC50 against Plasmodium falciparum), the IC50 stood at 0.11 µM. The “Selectivity index for P. falciparum (SIp)” value in [2] (ratio IC50 (L6)/IC50 (P. falciparum)) was 983 and 1254. Besides, the “Activity against L. donovani (in words)” value in series [3] is on record as “absence”.
The molecule `Nc1nc(Cl)c2ccn(C3O[C@H](CO)[C@@H](O)[C@H]3O)c2n1` (stereo partly drawn) [ACT-91, 2-Amino-6-chloro-7-deaza-9-(D-ribofuranosyl)purine] yielded a melting point of 172 to 173 °C. In addition, the IC50 with Trypanosoma cruzi (setting [7]) came out at 3.4 µM. In addition, in the series on Trypanosoma cruzi (ratio IC50 (L6)/IC50 (T. cruzi)), the “Selectivity index for T. cruzi (SIC)” value worked out at 48. Moreover, in series [1] (Trypanosoma brucei, STIB900, average of duplicate determinations, read-out: IC50 against T.b. rhodesiense), the IC50 was 0.13 µM. Further, in series [3], the IC50 amounted to 0.06 µM. In series [3] (ratio IC50 (L6)/IC50 (L. donovani)), the “Selectivity index for L. donovani (SIL)” value is 2720 and 2717.
On to `CSC[C@H]1O[C@@H](n2cnc3c(N)nc(F)nc32)[C@H](O)[C@@H]1O` [ACT-51, 5′-Deoxy-2-fluoro-5′-(methylthio)adenosine], for which the IC50 came to 2.6 µM in the series on Trypanosoma cruzi (setting [7]) and 0.584 µM in series [4]. Also, in series [1], the “Activity against Trypanosoma brucei (in words)” value is “strong activity”. For the same molecule, in [2], the “Activity against P. falciparum (in words)” value was “strong activity”. Further, in series [3], the “Activity against L. donovani (in words)” value was “strong activity”.
For the molecule `CNc1nc(C#N)nc2c1ncn2[C@@H]1O[C@H](CSC)[C@@H](O)[C@H]1O` [Compound 73, 2-Cyano-5′-deoxy-N^6-methyl-5′-(methylthio)adenosine], the melting point fell in the range of 193 to 194 °C.
`[N-]=[N+]=NC[C@H]1O[C@@H](n2cnc3c(N)nc(Cl)nc32)[C@H](O)[C@@H]1O` [Compound 49, 5′-Azido-2-chloro-5′-deoxyadenosine] gave a melting point of 222 to 223 °C.
Regarding `CNc1nc(C#N)nc2c1ncn2[C@@H]1O[C@H](C)[C@@H](O)[C@H]1O` [Compound 72, 2-Cyano-5′-deoxy-N^6-methyladenosine], the melting point was in the range of 193 to 194 °C.
For `CCCCCCCCCCCCCCCCOP(=O)([O-])OCC[N+](C)(C)C` [miltefosine, reference compound], in series [3], the IC50 is 0.122 µM.
Regarding `O=c1[nH]cnc2c([C@@H]3O[C@H](CO)[C@@H](O)[C@H]3O)n[nH]c12` [Formycin B], the “Therapeutic activity in a hamster model” value in the series with Leishmania donovani [5] is “therapeutically active”. In addition, the “Activity against T.b gambiense” value with T.b gambiense was “active”. For the same molecule, in the series on Leishmania donovani [6], the “Inhibition of Leishmania donovani in vitro” value is “inhibits”. Moreover, the “Activity against T.b. rhodesiense” value in the series with T.b. rhodesiense is reported as “active”.
On to `CC(=O)O[C@@H]1[C@H](OC(C)=O)[C@@H](CN=[N+]=[N-])O[C@H]1n1cnc2c(N)nc(Cl)nc21` [Compound 41, 2′,3′-Di-O-Acetyl-5′-azido-2-chloro-5′-deoxyadenosine], for which the melting point fell in the range of 75 to 77 °C.
Still for that read-out and setting: for `CC(=O)O[C@@H]1[C@H](OC(C)=O)[C@@H](CI)O[C@H]1n1cnc2c(N)nc(F)nc21` [Compound 46, 2′,3′-Di-O-acetyl-5′-deoxy-2-fluoro-5′-iodoadenosine] the value was 181 to 182 °C.
Consider `O=C(Cn1ccnc1[N+](=O)[O-])NCc1ccccc1` [benznidazole, reference compound], for which the IC50 with Trypanosoma cruzi (standard drug listed in the table, read-out: IC50 against T. cruzi (standard)) stood at 0.427 µM.
As to `CC(=O)O[C@@H]1[C@H](OC(C)=O)[C@@H](CI)O[C@H]1n1cnc2c(N)nc(Cl)nc21` [Compound 47, 2′,3′-Di-O-acetyl-2-chloro-5′-deoxy-5′-iodoadenosine], the melting point amounted to 93 °C.
For the molecule `CSC[C@H]1O[C@@H](n2cnc3c(N)nc(C#N)nc32)[C@H](O)[C@@H]1O` [Compound 71, 2-Cyano-5′-deoxy-5′-(methylthio)adenosine], the melting point is 184 to 185 °C.
Still for that read-out and setting: for `CSC[C@H]1O[C@@H](n2cnc3c(N)nc(NN)nc32)[C@H](O)[C@@H]1O` [Compound 58, 5′-Deoxy-2-hydrazino-5′-(methylthio)adenosine] the value was 168 to 169 °C.

What is called melting point is the temperature, or range, at which the solid turns liquid. The term IC50 denotes the concentration that inhibits the measured activity by half.
